Laboratory results reported in ChEMBL document CHEMBL3132769, “Fragment growing to retain or alter the selectivity of anchored kinase hinge-binding fragments” (Medchemcomm, 2014).

How the values were obtained:
[1] = target: T1, Serine/threonine-protein kinase D1 (Homo sapiens) (UniProt Q15139); assay: Inhibition of human full length PKD1 expressed in baculovirus assessed as substrate phosphorylation using fluorescence-labelled peptides as substrate at 0.2 uM after 90 mins by microfluidic peptide phosphorylation assay
T1 sequence (whole entry): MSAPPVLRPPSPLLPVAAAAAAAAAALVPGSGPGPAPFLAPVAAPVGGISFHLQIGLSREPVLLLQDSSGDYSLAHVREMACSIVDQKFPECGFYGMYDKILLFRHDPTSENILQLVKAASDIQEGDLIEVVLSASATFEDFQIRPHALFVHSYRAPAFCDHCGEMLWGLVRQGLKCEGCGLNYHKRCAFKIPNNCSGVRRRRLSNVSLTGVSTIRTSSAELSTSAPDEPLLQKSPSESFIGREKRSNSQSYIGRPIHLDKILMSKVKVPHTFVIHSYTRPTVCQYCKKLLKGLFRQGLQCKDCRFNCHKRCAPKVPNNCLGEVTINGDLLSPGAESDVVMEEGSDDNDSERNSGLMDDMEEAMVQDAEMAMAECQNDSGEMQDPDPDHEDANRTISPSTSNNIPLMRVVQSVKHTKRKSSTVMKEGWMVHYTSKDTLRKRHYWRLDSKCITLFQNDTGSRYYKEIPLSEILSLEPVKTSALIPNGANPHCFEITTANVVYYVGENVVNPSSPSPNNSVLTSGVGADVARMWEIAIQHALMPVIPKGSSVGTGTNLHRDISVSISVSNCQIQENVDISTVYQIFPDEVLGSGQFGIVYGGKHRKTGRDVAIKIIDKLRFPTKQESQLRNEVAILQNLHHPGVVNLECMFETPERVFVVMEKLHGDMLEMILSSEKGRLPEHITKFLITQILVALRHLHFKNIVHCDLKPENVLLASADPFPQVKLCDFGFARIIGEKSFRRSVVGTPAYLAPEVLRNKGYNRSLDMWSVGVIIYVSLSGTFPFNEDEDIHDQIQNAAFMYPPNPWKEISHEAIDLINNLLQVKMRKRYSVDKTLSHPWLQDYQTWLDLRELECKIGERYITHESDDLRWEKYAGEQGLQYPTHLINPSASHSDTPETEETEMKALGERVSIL

[2] = target: MAP kinase-activated protein kinase 2 (Homo sapiens) (UniProt P49137); assay: Inhibition of human full length MAPKAPK2 expressed in baculovirus assessed as substrate phosphorylation using fluorescence-labelled peptides as substrate at 95 uM after 90 mins by microfluidic peptide phosphorylation assay
[3] = target: T2, Protein kinase C zeta type (Homo sapiens) (UniProt Q05513); assay: Inhibition of human full length PKC zeta expressed in baculovirus assessed as substrate phosphorylation using fluorescence-labelled peptides as substrate at 95 uM after 90 mins by microfluidic peptide phosphorylation assay
T2 sequence (whole entry): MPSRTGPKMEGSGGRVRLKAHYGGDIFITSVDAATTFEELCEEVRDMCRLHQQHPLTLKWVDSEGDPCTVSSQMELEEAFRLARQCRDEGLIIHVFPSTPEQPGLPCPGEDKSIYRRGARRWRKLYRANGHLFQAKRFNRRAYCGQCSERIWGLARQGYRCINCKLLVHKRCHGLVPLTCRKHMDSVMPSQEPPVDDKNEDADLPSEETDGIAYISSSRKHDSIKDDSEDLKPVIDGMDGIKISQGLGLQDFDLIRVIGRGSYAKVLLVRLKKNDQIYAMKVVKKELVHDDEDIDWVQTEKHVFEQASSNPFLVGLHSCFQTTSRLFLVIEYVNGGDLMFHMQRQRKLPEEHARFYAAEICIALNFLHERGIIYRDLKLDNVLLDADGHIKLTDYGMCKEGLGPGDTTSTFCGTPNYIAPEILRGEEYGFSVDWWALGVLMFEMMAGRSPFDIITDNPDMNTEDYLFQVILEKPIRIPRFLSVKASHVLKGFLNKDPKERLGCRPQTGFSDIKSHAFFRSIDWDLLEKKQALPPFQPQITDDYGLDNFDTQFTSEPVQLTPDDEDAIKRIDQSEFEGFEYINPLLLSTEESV

[4] = test system: T3, Receptor-type tyrosine-protein kinase FLT3 (Homo sapiens), P36888 [D835Y]; assay: Inhibition of human FLT3 D835Y mutant catalytic domain expressed in baculovirus assessed as substrate phosphorylation using fluorescence-labelled peptides as substrate at 8 uM after 90 mins by microfluidic peptide phosphorylation assay
T3 sequence (whole entry): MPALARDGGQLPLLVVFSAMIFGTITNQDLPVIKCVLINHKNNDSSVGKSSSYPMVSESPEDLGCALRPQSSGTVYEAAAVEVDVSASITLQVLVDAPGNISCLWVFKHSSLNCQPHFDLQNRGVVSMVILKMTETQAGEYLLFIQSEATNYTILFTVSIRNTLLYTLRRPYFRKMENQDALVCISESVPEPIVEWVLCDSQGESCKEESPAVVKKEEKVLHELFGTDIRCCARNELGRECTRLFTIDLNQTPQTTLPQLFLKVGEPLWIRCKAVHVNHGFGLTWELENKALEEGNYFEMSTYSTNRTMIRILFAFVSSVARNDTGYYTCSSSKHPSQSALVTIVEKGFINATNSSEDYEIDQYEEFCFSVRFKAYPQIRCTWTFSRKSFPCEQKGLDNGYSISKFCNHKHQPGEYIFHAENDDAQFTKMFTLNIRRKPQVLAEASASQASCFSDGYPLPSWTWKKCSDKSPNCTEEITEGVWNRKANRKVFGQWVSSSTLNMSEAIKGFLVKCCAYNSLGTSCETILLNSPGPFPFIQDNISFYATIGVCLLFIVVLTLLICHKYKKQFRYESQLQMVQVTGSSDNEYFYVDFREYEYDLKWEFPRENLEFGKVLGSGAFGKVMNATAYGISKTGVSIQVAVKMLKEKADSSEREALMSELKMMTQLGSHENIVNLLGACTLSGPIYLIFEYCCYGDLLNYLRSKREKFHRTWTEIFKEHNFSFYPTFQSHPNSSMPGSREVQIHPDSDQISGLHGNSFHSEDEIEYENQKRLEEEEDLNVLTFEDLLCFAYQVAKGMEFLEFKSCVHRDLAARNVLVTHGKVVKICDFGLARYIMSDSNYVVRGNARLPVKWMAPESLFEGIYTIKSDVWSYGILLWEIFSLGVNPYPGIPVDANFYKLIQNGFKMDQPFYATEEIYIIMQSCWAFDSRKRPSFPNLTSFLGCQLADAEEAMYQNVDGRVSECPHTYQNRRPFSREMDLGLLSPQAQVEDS

[5] = test system: Tyrosine-protein kinase ABL1 (Homo sapiens), P00519 [T315I]; assay: Inhibition of human truncated ABL T315I mutant expressed in baculovirus assessed as substrate phosphorylation using fluorescence-labelled peptides as substrate at 1000 uM after 90 mins by microfluidic peptide phosphorylation assay

Chain of MAP kinase-activated protein kinase 2 (Homo sapiens) (P49137 whole entry, looked up): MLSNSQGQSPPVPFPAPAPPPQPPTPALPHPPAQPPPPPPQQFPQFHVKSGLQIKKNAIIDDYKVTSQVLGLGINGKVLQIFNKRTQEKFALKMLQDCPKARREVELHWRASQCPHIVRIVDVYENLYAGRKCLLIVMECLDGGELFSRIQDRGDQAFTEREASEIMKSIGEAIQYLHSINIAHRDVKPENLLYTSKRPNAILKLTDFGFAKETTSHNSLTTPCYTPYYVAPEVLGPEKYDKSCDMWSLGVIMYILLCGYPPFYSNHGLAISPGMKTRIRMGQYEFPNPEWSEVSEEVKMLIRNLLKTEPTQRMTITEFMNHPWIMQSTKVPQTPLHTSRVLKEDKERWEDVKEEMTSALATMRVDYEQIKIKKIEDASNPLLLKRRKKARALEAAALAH

`Clc1ccc(C2(c3ccc(-c4ncnc5[nH]cnc45)cc3)CCNCC2)cc1` gave an inhibition [1] of 8%.

In the case of `NCCc1ccc(-c2ncnc3[nH]cnc23)cc1`, the inhibition [2] is reported as 56.5% and the inhibition [3] is reported as 0%.

`NCC1CCN(c2ncnc3[nH]ccc23)CC1` showed an inhibition [4] of 4.5%.

Compound `c1cnc2[nH]ccc2c1` has an inhibition [5] of 58%.
